According to the NIST ThermoML archive (doi:10.1016/j.jct.2019.03.040):

How the values were obtained:
[1] = Liquid; for thermal diffusivity: 101.33 kPa, Laser flash apparatus; for Critical pressure / Critical temperature: Resistive pulse heating
[2] = molar heat capacity at constant pressure; conditions: 101.33 kPa, Small sample (50 mg) DSC

CCOC(=O)CCC(C)=O [ethyl levulinate]
[1]
Conditions | thermal diffusivity [m2/s]
303.15 K | 7.9e-08
313.15 K | 7.8e-08
323.15 K | 7.7e-08
333.15 K | 7.6e-08
343.15 K | 7.5e-08
353.15 K | 7.4e-08
363.15 K | 7.25e-08
373.15 K | 7.15e-08

[1]
Conditions | Critical pressure [kPa] | Critical temperature [K]
– | 2970 | 669

[2], Liquid
Conditions | molar heat capacity at constant pressure [J/K/mol]
302.98 K | 275.22
303.48 K | 275.79
303.98 K | 276.51
304.48 K | 276.37
304.98 K | 275.65
305.48 K | 276.08
305.98 K | 275.65
306.48 K | 276.08
306.98 K | 276.95
307.48 K | 277.24
307.98 K | 277.67
308.48 K | 277.52
308.98 K | 277.38
309.48 K | 277.67
309.98 K | 277.96
310.48 K | 278.53
310.98 K | 278.82
311.48 K | 277.96
311.98 K | 278.24
312.48 K | 277.24
312.98 K | 278.53
313.48 K | 278.82
313.98 K | 279.25
314.48 K | 279.25
314.98 K | 279.25
315.48 K | 278.53
315.98 K | 279.25
316.48 K | 278.68
316.98 K | 278.97
317.48 K | 279.69
317.98 K | 279.4
318.48 K | 279.83
318.98 K | 279.69
319.48 K | 279.83
319.98 K | 279.54
320.48 K | 280.55
320.98 K | 280.98
321.48 K | 280.7
321.98 K | 279.97
322.48 K | 280.55
322.98 K | 280.84
323.48 K | 281.42
323.98 K | 281.13
324.48 K | 281.42
324.98 K | 281.56
325.48 K | 281.27
325.98 K | 281.99
326.48 K | 282.57
326.98 K | 282.14
327.48 K | 282.43
327.98 K | 282.57
328.48 K | 283.29
328.98 K | 283.15
329.48 K | 282.86
329.98 K | 283.29
330.48 K | 283.87
330.98 K | 284.01
331.48 K | 284.01
331.98 K | 284.16
332.48 K | 284.44
332.98 K | 284.16
333.48 K | 284.3
333.98 K | 284.01
334.48 K | 284.88
334.98 K | 285.74
335.48 K | 285.6
335.98 K | 285.89
336.48 K | 285.6
336.98 K | 285.89
337.48 K | 285.74
337.98 K | 285.6
338.48 K | 286.17
338.98 K | 286.32
339.48 K | 286.32
339.98 K | 286.03
340.48 K | 286.32
340.98 K | 285.74
341.48 K | 286.17
341.98 K | 286.46
342.48 K | 286.75
342.98 K | 285.89
343.48 K | 286.61
343.98 K | 286.9
344.48 K | 287.76
344.98 K | 288.34
345.48 K | 287.47
345.98 K | 288.63
346.48 K | 288.19
346.98 K | 287.9
347.48 K | 288.05
347.98 K | 288.48
348.48 K | 288.48
348.98 K | 288.19
349.48 K | 289.2
349.98 K | 289.2
350.48 K | 289.35
350.98 K | 289.2
351.48 K | 289.63
351.98 K | 289.2
352.48 K | 289.78
352.98 K | 290.5
353.48 K | 289.78
353.98 K | 290.36
354.48 K | 290.21
354.98 K | 289.92
355.48 K | 289.92
355.98 K | 289.78
356.48 K | 289.92
356.98 K | 291.08
357.48 K | 290.93
357.98 K | 290.64
358.48 K | 290.93
358.98 K | 290.79
359.48 K | 291.51
359.98 K | 292.09
360.48 K | 291.65
360.98 K | 292.09
361.48 K | 292.52
361.98 K | 291.51
362.48 K | 292.66
362.98 K | 292.81
363.48 K | 293.82
363.98 K | 293.53
364.48 K | 293.67
364.98 K | 294.25
365.48 K | 294.39
365.98 K | 295.4
366.48 K | 294.54
366.98 K | 295.83
367.48 K | 295.55
367.98 K | 295.98
368.48 K | 295.83
368.98 K | 296.84
369.48 K | 296.84
369.98 K | 296.27
370.48 K | 296.99
370.98 K | 296.27
371.48 K | 296.55
371.98 K | 296.84
372.48 K | 296.84
372.98 K | 296.84
373.48 K | 296.99
373.98 K | 297.13

CC(=O)CCC(=O)O [4-oxopentanoic acid]
[1]
Conditions | Critical pressure [kPa] | Critical temperature [K]
– | 5310 | 766

[2], Metastable liquid
Conditions | molar heat capacity at constant pressure [J/K/mol]
302.62 K | 245.93
303.12 K | 246.16
303.62 K | 246.05
304.12 K | 246.28
304.62 K | 246.16
305.12 K | 246.51
305.62 K | 246.4
306.12 K | 246.86
306.62 K | 246.86
307.12 K | 246.86
307.62 K | 246.86
308.12 K | 246.98
308.62 K | 247.44
309.12 K | 247.09
309.62 K | 247.33
310.12 K | 247.44
310.62 K | 248.02
311.12 K | 247.91
311.62 K | 247.91
312.12 K | 247.91
312.62 K | 247.91
313.12 K | 247.56
313.62 K | 247.91
314.12 K | 248.25
314.62 K | 248.37
315.12 K | 248.49
315.62 K | 248.83
316.12 K | 248.95
316.62 K | 249.53
317.12 K | 249.65
317.62 K | 249.76
318.12 K | 250.46
318.62 K | 250.23
319.12 K | 250
319.62 K | 250.34
320.12 K | 250.11
320.62 K | 250.46
321.12 K | 250.34
321.62 K | 250.46
322.12 K | 250.58
322.62 K | 250.46
323.12 K | 251.16
323.62 K | 251.04
324.12 K | 251.27
324.62 K | 251.51
325.12 K | 251.27
325.62 K | 251.39
326.12 K | 251.74
326.62 K | 252.2
327.12 K | 251.85
327.62 K | 251.85
328.12 K | 251.85
328.62 K | 252.09
329.12 K | 252.32
329.62 K | 251.85
330.12 K | 252.55
330.62 K | 252.55
331.12 K | 252.67
331.62 K | 253.25
332.12 K | 253.6
332.62 K | 253.83
333.12 K | 254.06
333.62 K | 254.29
334.12 K | 254.06
334.62 K | 254.18
335.12 K | 254.41
335.62 K | 254.41
336.12 K | 254.87
336.62 K | 254.64
337.12 K | 255.11
337.62 K | 255.45
338.12 K | 255.22
338.62 K | 255.22
339.12 K | 255.57
339.62 K | 255.8
340.12 K | 256.03
340.62 K | 256.5
341.12 K | 256.73
341.62 K | 257.08
342.12 K | 257.43
342.62 K | 257.54
343.12 K | 257.66
343.62 K | 257.89
344.12 K | 257.89
344.62 K | 257.31
345.12 K | 257.43
345.62 K | 257.54
346.12 K | 257.89
346.62 K | 258.24
347.12 K | 258.59
347.62 K | 258.7
348.12 K | 258.59
348.62 K | 258.82
349.12 K | 258.94
349.62 K | 258.82
350.12 K | 258.94
350.62 K | 259.17
351.12 K | 259.17
351.62 K | 259.29
352.12 K | 260.21
352.62 K | 260.1
353.12 K | 259.87
353.62 K | 260.33
354.12 K | 260.45
354.62 K | 259.75
355.12 K | 260.21
355.62 K | 260.45
356.12 K | 260.79
356.62 K | 260.79
357.12 K | 260.56
357.62 K | 260.79
358.12 K | 260.45
358.62 K | 260.56
359.12 K | 261.03
359.62 K | 260.68
360.12 K | 260.79
360.62 K | 261.03
361.12 K | 261.38
361.62 K | 261.61
362.12 K | 261.96
362.62 K | 262.07
363.12 K | 262.07
363.62 K | 262.07
364.12 K | 262.88
364.62 K | 262.77
365.12 K | 263.12
365.62 K | 263.7
366.12 K | 264.39
366.62 K | 264.39
367.12 K | 263.93
367.62 K | 263.47
368.12 K | 263.12
368.62 K | 263.12
369.12 K | 263.47
369.62 K | 263.47
370.12 K | 263.7
370.62 K | 263.7
371.12 K | 263.93
371.62 K | 264.05
372.12 K | 264.28
372.62 K | 264.05
373.12 K | 264.28
373.62 K | 264.28
374.12 K | 264.51
